ChEMBL document CHEMBL5137022, “Antitumor Activity of Rutaecarpine in Human Colorectal Cancer Cells by Suppression of Wnt/β-Catenin Signaling” (J Nat Prod, 2022)
The source made the active and inactive calls. No cut-off for these calls is given here.

Key:
LS174T [1] = assay: Induction of cell cycle arrest in human LS174T cells assessed as accumulation of cells at G2/M phase at 20 uM measured at 24 hrs by RNase A/propidium iodide staining based flow cytometric analysis (reference value: 12.9 %); type: functional
LS174T [2] = assay: Downregulation of cyclin D1 expression in human LS174T cells at 2.5 to 20 uM incubated for 24 hrs by Western blot analysis; type: functional, cell-based; conditions: dose 2.5-20 µM
LS174T [3] = assay: Inhibition of Wnt/beta-catenin transactivation signalling in human LS174T cells transfected with renilla luciferase and TOPFlash reporter gene incubated for 24 hrs by dual-luciferase assay; type: cell-based; conditions: dose 2.5-20 µM, DDE = dose-dependent effect
LS174T [4] = assay: Induction of cell cycle arrest in human LS174T cells assessed as downregulation of CDK2 expression measured after 24 hrs by Western blot analysis; type: functional, cell-based; conditions: dose 5-20 µM, DDE = dose-dependent effect
Mus musculus = assay: Downregulation of survivin expression in tumor of BALB/c mouse xenografted with human LS174T cells at 10 to 30 mg/kg, ip administered 3 times per week for 21 days by Western blot analysis; type: functional, organism-based; conditions: dose 10-30 mg/kg, time 21.0 day
SW480 = assay: Antiproliferative activity against human SW480 cells harboring wild type beta-catenin assessed as reduction in cell viability measured after 72 hrs by SRB assay; type: functional, cell-based; conditions: SW480, 72 h
CCD-18Co = assay: Antiproliferative activity against human CCD-18Co cells assessed as reduction in cell viability measured after 72 hrs by SRB assay; type: functional, cell-based
LS174T [5] = assay: Induction of cell cycle arrest in human LS174T cells assessed as accumulation of cells at G2/M phase at 20 uM measured at 12 hrs by RNase A/propidium iodide staining based flow cytometric analysis (reference value: 12.9 %); type: functional
LS174T [6] = assay: Induction of cell cycle arrest in human LS174T cells assessed as accumulation of cells at G0/G1 phase at 20 uM measured at 36 hrs by RNase A/propidium iodide staining based flow cytometric analysis (reference value: 74.8 %); type: functional
LS174T [7] = assay: Induction of cell cycle arrest in human LS174T cells assessed as accumulation of cells at S phase at 20 uM measured at 24 hrs by RNase A/propidium iodide staining based flow cytometric analysis (reference value: 11.4 %); type: functional
LS174T [8] = assay: Induction of cell cycle arrest in human LS174T cells assessed as accumulation of cells at G0/G1 phase at 20 uM measured at 48 hrs by RNase A/propidium iodide staining based flow cytometric analysis (reference value: 74.8 %); type: functional
HCT-15 = assay: Antiproliferative activity against human HCT-15 cells harboring wild type beta-catenin assessed as reduction in cell viability measured after 72 hrs by SRB assay; type: functional, cell-based; conditions: HCT-15, 72 h

O=c1c2ccccc2nc2n1CCc1c-2[nH]c2ccccc12 [RUTAECARPINE]
Activity (LS174T [1]): 5.6%
Activity (LS174T [2]): Active
inhibition (LS174T [3]): Dde
Activity (LS174T [4]): Dde
Activity (Mus musculus): Active
IC50 (SW480): > 50 µM
IC50 (CCD-18Co): > 50 µM
Activity (LS174T [5]): 16.8%
Activity (LS174T [6]): 87.4%
Activity (LS174T [7]): 2.2%
Activity (LS174T [8]): 76.9%
IC50 (HCT-15): > 50 µM
